Data: EP4647433A1, “SHP2 INHIBITOR AND USES THEREOF” (Kanaph Therapeutics Inc., priority 2023, dated 2024)

Columns and labels:
phospho-ERK = phospho-ERK assay (AlphaLisa) in H358 cells; format: cell-based; conditions: Homo sapiens, NCI-H358, 1.5 hours incubation, read-out: pERK assay (IC50)
Method: H358 [20,000 cell/well] was contained in 40 µL of the cell culture solution (RPMI, 10% FBS, penicillin, streptomycin) and placed on a 384-well plate. After 24 hours, the serially diluted compound according to the Examples (concentration of minimum 0.13 nM, maximum 10 µM) was contained in 10 µL of the cell culture solution, put into wells containing cells, and incubated in a cell incubator for 1.5 hours. As a positive control group, the selective SHP2 inhibitor, TNO155 (Chemietek, US; concentration ranging from 0.13 nM to 10 µM) was used.
Thereafter, phospho-ERK was labeled using an AlphaLisa system from PerkinElmer according to the manufacturer's instructions, and then fluorescence (680 nm excitation wavelength, 615 nm emission wavelength) values were measured using a Varioskan equipment from Thermo. IC50 values were obtained using Graphad's Prism from the measured values depending on the concentration.
Intracellular SHP2 activity can be confirmed by measuring the degree of phosphorylation of ERK (extracellular signal regulated kinase), which represents Ras/Raf/ERK, a downstream signal pathway of SHP2. Inhibition of ERK phosphorylation by SHP2 inhibitors was confirmed through phospho-ERK analysis, which confirmed that the SHP2 inhibitors of the present disclosure have excellent activity in inhibiting ERK phosphorylation mediated by SHP2.

SHP2 = target: T1, SHP2 (Homo sapiens, UniProt Q06124); experiment: Phosphatase assay (PTPase assay, DiFMUP substrate); format: biochemical; conditions: full length SHP2 100 pM activated with SHP2 activating peptide, DiFMUP 80 µM, 2 hours; read-out: PTPase assay (IC50)
T1 construct: SHP2 (full length, diluted to 100 pM final concentration in reaction buffer, BPS bioscience, US); purchased BPS bioscience, US
T1 sequence (Q06124 1-593): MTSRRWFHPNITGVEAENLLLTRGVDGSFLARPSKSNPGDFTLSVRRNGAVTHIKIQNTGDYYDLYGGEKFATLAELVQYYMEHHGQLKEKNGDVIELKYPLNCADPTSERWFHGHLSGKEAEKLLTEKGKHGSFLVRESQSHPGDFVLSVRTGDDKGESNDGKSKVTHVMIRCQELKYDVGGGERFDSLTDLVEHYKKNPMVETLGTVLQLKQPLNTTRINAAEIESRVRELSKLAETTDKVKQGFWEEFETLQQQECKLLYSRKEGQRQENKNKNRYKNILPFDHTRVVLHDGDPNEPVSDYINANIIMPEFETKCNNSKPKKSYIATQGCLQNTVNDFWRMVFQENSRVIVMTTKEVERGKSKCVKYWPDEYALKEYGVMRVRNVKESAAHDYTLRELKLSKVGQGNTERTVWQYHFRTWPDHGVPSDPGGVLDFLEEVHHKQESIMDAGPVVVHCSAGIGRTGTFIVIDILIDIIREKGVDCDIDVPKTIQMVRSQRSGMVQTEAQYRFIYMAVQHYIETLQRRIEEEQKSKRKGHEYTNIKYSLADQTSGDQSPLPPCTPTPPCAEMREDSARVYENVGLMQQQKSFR
Method: IC50 values were measured using 6,8-difluoro-4-methylumbelliferyl phosphate (DiFMUP) as a substrate. The reaction was performed in a 384-well plate, and fluorescence measurement values were obtained using an EnVision plate reader from PerkinElmer.
SHP2 (full length, diluted to 100 pM final concentration in reaction buffer, BPS bioscience, US) was incubated with the SHP2 activating peptide in reaction buffer (60 mM HEPES (pH 7.2), 75 mM NaCl, 75 mM KCl, 1 mM EDTA, 5 mM DTT, 0.05% P-20) for 30 minutes to activate SHP2. After activation, DMSO [1% (V/V) or the compound according to the Examples (concentration ranging from 0.6 nM to 10 µM)] was added. As a positive control group, the selective SHP2 inhibitors SHP099 (6-(4-amino-4-methylpiperidin-1-yl)-3-(2,3-dichlorophenyl)pyrazin-2-amine, FOCUS bioscience, Austrailia; concentration ranging from 0.6 nM to 10 µM) and TNO155 ((3S,4S)-8-(6-amino-5-((2-amino-3-chloropyridin-4-yl)thio)pyrazin-2-yl)-3-methyl-2-oxa-8-azaspiro[4.5]decan-4-amine, Chemietek, US; concentration ranging from 0.6 nM to 10 µM) were used. [drawing 184]
DiFMUP (80 µM) was added to the reaction and incubated for a total of 2 hours to allow for the reaction to proceed. Thereafter, fluorescence (340 nm excitation, 450 nm emission) values were measured. IC50 values were obtained using Graphad's Prism from the measured values depending on the concentration.
In the phosphatase assay (PTPase assay), when an IC50 value was 100 nM or more, + was indicated, when an IC50 value was 3 nM or more and less than 100 nM, ++ was indicated, and when an IC50 value was less than 3 nM, +++ was indicated.

H358 cells = experiment: Cell viability (3D spheroid, 3D CellTiter-Glo); format: cell-based; conditions: Homo sapiens, NCI-H358, 120 h; H358 spheroids, 5 days treatment
Method: Human non-small cell lung cancer cell line H358 cells were purchased from the Korean Cell Line Bank. Cancer cell lines were cultured in the recommended RPMI-1640 medium supplemented with 10% fetal bovine serum (FBS) and 1% penicillin/streptomycin. Monolayer-cultured cancer cell lines were detached by treatment with Trypsin/EDTA, and 100 µL of cell suspension containing 4 x 10^3 cells was each dispensed into SPL3D™ Cell Floater, 96-well round plate, through cell line counting. After culturing for 72 hours to form spheroid, the cells were individually treated with the compounds according to the Examples, which had been serially diluted (minimum 1.5 nM, maximum 10 µM in concentration), and then cultured in a cell incubator for 5 days. To analyze cell viability, the cells were treated with 50 uL of 3D CellTiter-Glo, stirred for 5 minutes at 500 rpm in a plate shaker from Thermo Fisher Scientific, and incubated for 25 minutes at room temperature. Then, the luminescent values were measured using a Varioskan equipment from Thermo Fisher Scientific. IC50 values were obtained using GraphPad's Prism from the measured values depending on the concentration.
In the cell viability assay, when an IC50 value was 50 nM or more, + was indicated, when an IC50 value was 10 nM or more and less than 50 nM, ++ was indicated, and when an IC50 value was less than 10 nM, +++ was indicated.

[1] = Brain-plasma Pharmacokinetics; conditions: male, CD-1 (ICR), mouse, brain/plasma, 20 mg/kg
Method: Nine male CD-1 mice (ICR mouse) aged 6 to 9 weeks were treated with the compounds according to the Examples at a concentration of 20 mg/kg. 0.025 mL of blood and brain tissue were collected at 1 hour, 8 hours, and 24 hours post-treatment, respectively. The collected blood was placed in an EDTA-K2 tube, centrifuged at 4°C at 3,200 x g for 10 minutes, and the supernatant plasma was collected. The brain tissue samples were collected immediately after euthanizing the CD-1 mice after blood collection and performing cardiac perfusion with cold saline. After collection, the brain tissues were washed with cold saline, wiped and dried, weighed, and homogenized using a homogenization buffer (15 mM PBS (pH 7.4): MeOH = 2:1) at a ratio of 1:3 (1 g of tissue to 3 mL of buffer, dilution ratio 4). Plasma and homogenized brain tissue samples were each transferred to a polypropylene microcentrifuge tube and stored at -60°C or lower. The concentration of compounds distributed in plasma and brain tissue was analyzed using LC-MS/MS, and the distribution in brain tissue compared to plasma was calculated as follows. Brain-to-plasma ratio = AUC(0-t) brain tissue /AUC(0-t) plasma [formula]
In the Brain-plasma Pharmacokinetics assay, when a brain-to-plasma ratio value was 0.05 or more and less than 0.1, + was indicated, when a brain-to-plasma ratio value was 0.1 or more and less than 0.25, ++ was indicated, and when a brain-to-plasma ratio value was more than 0.25, +++ was indicated.

IC50 (phospho-ERK) [nM]	IC50 (SHP2) [nM]	IC50 (H358 cells) [nM]	Kp at 24 h [1]	SMILES
45 to 1500	3 to 100	< 10	> 0.25	COC(C)(C)Cn1cnc2ccc(Sc3cnc(N4CCC5(CC4)Cc4ccccc4[C@H]5N)cn3)cc2c1=O [Example 29, (S)-6-((5-(1-amino-1,3-dihydrospiro[indene-2,4'-piperidin]-1'-yl)pyrazin-2-yl)thio)-3-(2-methoxy-2-methylpropyl)quinazolin-4(3H)-one]
45 to 1500	< 3	< 10	0.1 to 0.25	CC(C)n1ccc2ccc(Sc3ncc(N4CCC5(CC4)Cc4ccccc4[C@H]5N)nc3N)c(Cl)c2c1=O [Example 48, (S)-7-((3-amino-5-(1-amino-1,3-dihydrospiro[indene-2,4'-piperidin]-1'-yl)pyrazin-2-yl)thio)-8-chloro-2-isopropylisoquinolin-1(2H)-one]
45 to 1500	< 3	< 10	0.1 to 0.25	Cn1ccc2ccc(Sc3cnc(N4CCC5(CC4)Cc4ccccc4[C@H]5N)cn3)cc2c1=O [Example 45, (S)-7-((5-(1-amino-1,3-dihydrospiro[indene-2,4'-piperidin]-1'-yl)pyrazin-2-yl)thio)-2-methylisoquinolin-1(2H)-one]
45 to 1500	< 3	< 10	0.1 to 0.25	COC(C)(C)Cn1cnc2ccc(Sc3nc(CO)c(N4CCC5(CC4)Cc4ccccc4[C@H]5N)nc3C)c(Cl)c2c1=O [Example 35, (S)-6-((5-(1-amino-1,3-dihydrospiro[indene-2,4'-piperidin]-1'-yl)-6-(hydroxymethyl)-3-methylpyrazin-2-yl)thio)-5-chloro-3-(2-methoxy-2-methylpropyl)quinazolin-4(3H)-one]
< 45	< 3	< 10	0.05 to 0.1	CC(C)(O)Cn1cnc2ccc(Sc3cnc(N4CCC5(CC4)Cc4ccccc4[C@H]5N)cn3)c(Cl)c2c1=O [Example 25, (S)-6-((5-(1-amino-1,3-dihydrospiro[indene-2,4'-piperidin]-1'-yl)pyrazin-2-yl)thio)-5-chloro-3-(2-hydroxy-2-methylpropyl)quinazolin-4(3H)-one]
45 to 1500	< 3	10 to 50	> 0.25	Cn1ccc2ccc(Sc3cnc(N4CCC5(CC4)Cc4ccccc4[C@H]5N)cn3)c(Cl)c2c1=O [Example 41, (S)-7-((5-(1-amino-1,3-dihydrospiro[indene-2,4'-piperidin]-1'-yl)pyrazin-2-yl)thio)-8-chloro-2-methylisoquinolin-1(2H)-one]
< 45	–	< 10	0.1 to 0.25	COC(C)(C)Cn1cnc2ccc(Sc3cnc(N4CCC5(CC4)Cc4ncsc4[C@H]5N)cn3)c(Cl)c2c1=O [Example 32, (S)-6-((5-(6-amino-4,6-dihydrospiro[cyclopenta[d]thiazole-5,4'-piperidin]-1'-yl)pyrazin-2-yl)thio)-5-chloro-3-(2-methoxy-2-methylpropyl)quinazolin-4(3H)-one]
< 45	< 3	< 10	> 0.25	COC(C)(C)Cn1cnc2ccc(Sc3cnc(N4CCC5(CC4)Cc4ccccc4[C@H]5N)cn3)c(Cl)c2c1=O [Example 27, (S)-6-((5-(1-amino-1,3-dihydrospiro[indene-2,4'-piperidin]-1'-yl)pyrazin-2-yl)thio)-5-chloro-3-(2-methoxy-2-methylpropyl)quinazolin-4(3H)-one]
45 to 1500	3 to 100	< 10	> 0.25	COC(C)(C)Cn1ccc2ccc(Sc3cnc(N4CCC5(CC4)Cc4ccccc4[C@H]5N)cn3)cc2c1=O [Example 44, (S)-7-((5-(1-amino-1,3-dihydrospiro[indene-2,4'-piperidin]-1'-yl)pyrazin-2-yl)thio)-2-(2-methoxy-2-methylpropyl)isoquinolin-1(2H)-one]
< 45	< 3	< 10	0.05 to 0.1	COC(C)(C)Cn1cnc2ccc(Sc3ncc(N4CCC5(CC4)Cc4ccccc4[C@H]5N)nc3N)c(Cl)c2c1=O [Example 36, (S)-6-((3-amino-5-(1-amino-1,3-dihydrospiro[indene-2,4'-piperidin]-1'-yl)pyrazin-2-yl)thio)-5-chloro-3-(2-methoxy-2-methylpropyl)quinazolin-4(3H)-one]
< 45	< 3	< 10	0.1 to 0.25	Cn1ccc2ccc(Sc3ncc(N4CCC5(CC4)Cc4ccccc4[C@H]5N)nc3N)c(Cl)c2c1=O [Example 47, (S)-7-((3-amino-5-(1-amino-1,3-dihydrospiro[indene-2,4'-piperidin]-1'-yl)pyrazin-2-yl)thio)-8-chloro-2-methylisoquinolin-1(2H)-one]
< 45	< 3	< 10	0.1 to 0.25	COC(C)Cn1ccc2ccc(Sc3ncc(N4CCC5(CC4)Cc4ccccc4[C@H]5N)nc3N)c(Cl)c2c1=O (stereo partly drawn) [Example 49]
45 to 1500	–	< 10	0.1 to 0.25	N[C@@H]1c2ccccc2CC12CCN(c1cnc(Sc3ccc4ncn(-c5cccnc5)c(=O)c4c3Cl)cn1)CC2 [Example 31, (S)-6-((5-(1-amino-1,3-dihydrospiro[indene-2,4'-piperidin]-1'-yl)pyrazin-2-yl)thio)-5-chloro-3-(pyridin-3-yl)quinazolin-4(3H)-one]

SMILES	IC50 (phospho-ERK) [nM]	IC50 (SHP2) [nM]	IC50 (H358 cells) [nM]	Kp at 24 h [1]
COC(C)(C)Cn1cnc2ccc(Sc3ncc(N4CCC5(CC4)CO[C@@H](C)[C@H]5N)nc3N)c(Cl)c2c1=O [Example 37, 6-((3-amino-5-((3S,4S)-4-amino-3-methyl-2-oxa-8-azaspiro[4.5]decan-8-yl)pyrazin-2-yl)thio)-5-chloro-3-(2-methoxy-2-methylpropyl)quinazolin-4(3H)-one]	45 to 1500	3 to 100	10 to 50	0.05 to 0.1
